According to patent publication US11925616B2, “Compositions comprising urolithin compounds” (Amazentis SA, priority 2015, dated 2024):

Experiments:
in vivo = test: in vivo; parameters: species or system male Sprague-Dawley rats; settings: male, Sprague-Dawley, rat, po, 25 mg/kg
Experimental: The solutions for gavage were prepared as follows: 35 mg of urolithin A powder was diluted in 7 ml of 15% DMSO, 0.5% methyl cellulose/0.25% Tween 80 in water, resulting in a 5 mg/ml fine suspension. The DMSO was obtained from BDH, methyl cellulose was obtained from Sigma, and Tween 80 was obtained from Sigma-Aldrich.
Blood was collected from the rats by jugular vein cannulation at different time points, and urolithin A was quantified in the plasma to determine its pharmacokinetic profile following oral gavage of Sample #1, Sample #2, and Sample #3. The study was repeated on three rats for each sample. […]

[1] = Particle size determinations for urolithin A; format: physicochemical; settings: for D10 / D50 / D90: Malvern Particle Size analyzer, before and after micronization
Experimental: The particle size of urolithin A was reduced in a controlled manner using an MC50 Spiral Jetmill, using filtered nitrogen, with a feed rate of 240 g/hr, a Venturi pressure of 12 bar, and a mill pressure of 12 bar. Different particle size distributions of urolithin A were determined on a Malvern Particle Size analyzer (Malvern Instruments, UK). Three samples were evaluated in depth.

myotubes = settings: in vitro; cited from earlier work
[2] = micronized urolithin used in the formulations of Example 1

Compound | Cmax (in vivo) [ng/mL] | Relative Cmax (% of non-micronized Cmax) (in vivo) [%] | Relative bioavailability (% AUC of non-micronized urolithin A) (in vivo) [%] | AUC (in vivo; AUC) [ng·h/mL] | Tmax (in vivo; Tmax (h)) [min] | D10 [1] [μm] | D50 [1] [μm] | D90 [1] [μm] | D10, actual particle size [1, 2] [μm] | D50, actual particle size [1, 2] [μm] | D90, actual particle size [1, 2] [μm] | AUC (in vivo) [ng·h/mL] | Tmax (in vivo) [min] | fold increase in the Cmax in comparison to Sample #1 (in vivo) [fold] | increase in the AUC in comparison to Sample #1 (in vivo) [%] | relative increase in the Cmax in comparison to Sample #1 (in vivo) [%] | effect on mean diameter of myotubes (myotubes)
O=c1oc2cc(O)ccc2c2ccccc12 [Urolithin B] | – | – | – | – | – | – | – | – | – | – | – | – | – | – | – | – | increased the mean diameter of myotubes
O=c1oc2cc(O)ccc2c2ccc(O)cc12 [Sample #2, Urolithin A] | 37 | 216 | 128 | – | – | 0.272 | 2.17 | 6.84 | – | – | – | 96.2 | 19.8 | 2.16 | 28 | 116 | –
O=c1oc2cc(O)ccc2c2ccc(O)cc12 [Sample #3, Urolithin A] | 17.4 | 102 | 126 | – | – | 0.597 | 5.67 | 40.1 | – | – | – | 94.8 | 30 | – | 26 | – | –

Now from value to compound, other results behind:

Cmax (in vivo) [ng/mL] | Relative Cmax (% of non-micronized Cmax) (in vivo) [%] | Relative bioavailability (% AUC of non-micronized urolithin A) (in vivo) [%] | AUC (in vivo; AUC) [ng·h/mL] | Tmax (in vivo; Tmax (h)) [min] | D10 [1] [μm] | D50 [1] [μm] | D90 [1] [μm] | D10, actual particle size [1, 2] [μm] | D50, actual particle size [1, 2] [μm] | D90, actual particle size [1, 2] [μm] | AUC (in vivo) [ng·h/mL] | Tmax (in vivo) [min] | fold increase in the Cmax in comparison to Sample #1 (in vivo) [fold] | increase in the AUC in comparison to Sample #1 (in vivo) [%] | relative increase in the Cmax in comparison to Sample #1 (in vivo) [%] | Compound | effect on mean diameter of myotubes (myotubes)
17.1 | 100 | 100 | 75.1 | 15 | 1.03 | 53.4 | 365 | – | – | – | – | – | – | – | – | O=c1oc2cc(O)ccc2c2ccc(O)cc12 [Sample #1, Urolithin A] | –
– | – | – | – | – | – | – | – | 0.7 | 3.9 | 11.5 | – | – | – | – | – | O=c1oc2cc(O)ccc2c2ccc(O)cc12 [Urolithin A] | not seen
